We go through nine molecules from patent US11384099B2, “Pyrazolopyridinone compounds” (Janssen Pharmaceutica NV, priority 2017, dated 2022).

In assay [1] the target is T1, human FGFR3 V555M enzyme (cytoplasmic domain carrying V555M mutation) (Homo sapiens, UniProt P22607, V555M).
T1 construct: cytoplasmic domain carrying V555M mutation, from Carna Biosciences; purchased Carna Biosciences
The assay is described as follows: FGFR3 V555M mobility shift assay (enzymatic assay, Caliper). It counts as biochemical. The settings on record: 30 μM ATP, 45 minutes at 30° C. The method, then:
FGFR3 V555M Mobility Shift Assay (Enzymatic Assay)
In a final reaction volume of 25 μL, 0.04 ng/μL human FGFR3 V555M enzyme (cytoplasmic domain carrying V555M mutation, from Carna Biosciences) was incubated with 30 μM ATP, 1 μM FL-peptide 30 substrate and 250 nL of testing compound (1% DMSO final) in assay buffer (100 mM HEPES pH 7.4, 10 mM MgCl2, 0.003% Brij35, 1 mM DTT). After incubation for 45 minutes at 30° C. the reaction was stopped with 10 μL of 0.5M EDTA pH 8.0, and then L of reaction mixture was transferred to reading plate and measured on Caliper EZ reader II.

Assay [2] has as its target T2, human FGFR3 wild type enzyme (cytoplasmic domain) (Homo sapiens, UniProt P22607).
T2 construct: human FGFR3 wild type enzyme (cytoplasmic domain, from Cama Biosciences); purchased Carna Biosciences
In words: FGFR3 wild type mobility shift assay (enzymatic assay, Caliper). It counts as biochemical. The settings on record: 75 μM ATP, 50 minutes at 30° C. The method, then: FGFR3 Wild Type Mobility Shift Assay (Enzymatic Assay)
In a final reaction volume of 25 μL, 0.04 ng/μL human FGFR3 wild type enzyme (cytoplasmic domain, from Cama Biosciences) was incubated with 75 μM ATP, 1 μM FL-peptide 30 substrate and 250 nL of testing compound (1% DMSO final) in assay buffer (100 mM HEPES pH 7.4, 10 mM MgCl2, 0.003% Brij35, 1 mM DTT). After incubation for 50 minutes at 30° C. the reaction was stopped with 10 μL of 0.5M EDTA pH 8.0, and then L of reaction mixture was transferred to reading plate and measured on Caliper EZ reader II.

T2 sequence (P22607 397-806 limits assumed): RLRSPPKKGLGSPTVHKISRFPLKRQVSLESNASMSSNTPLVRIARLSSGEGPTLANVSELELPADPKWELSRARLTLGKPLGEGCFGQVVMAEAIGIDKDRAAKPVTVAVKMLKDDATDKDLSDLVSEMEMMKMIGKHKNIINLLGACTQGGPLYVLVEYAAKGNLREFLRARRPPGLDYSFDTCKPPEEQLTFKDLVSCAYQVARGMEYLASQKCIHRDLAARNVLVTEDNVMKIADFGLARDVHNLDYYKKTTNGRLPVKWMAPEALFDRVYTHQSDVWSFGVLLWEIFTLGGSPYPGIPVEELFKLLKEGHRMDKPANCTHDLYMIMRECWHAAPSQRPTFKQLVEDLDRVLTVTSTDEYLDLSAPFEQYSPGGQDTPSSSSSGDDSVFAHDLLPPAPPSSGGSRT
T1 sequence (P22607 397-806 V555M limits assumed): as the sequence (P22607 397-806 limits assumed) above, with V159M counted along it

Regarding `COCC(Nc1c(-c2nc3ccc(OC)cc3[nH]2)c(=O)[nH]c2cn(C)nc12)c1ncccn1` (single isomer, unassigned) [Compound 13, (R*)-7-((2-methoxy-1-(pyrimidin-2-yl)ethyl)amino)-6-(6-methoxy-1H-benzo[d]imidazol-2-yl)-2-methyl-2H-pyrazolo[4,3-b]pyridin-5 (4H)-one], the figures for the IC50 in assay [1] and in assay [2] were 375 nM and 1830 nM, respectively.

For `COCC(Nc1c(-c2nc3cnc(OC)cc3[nH]2)c(=O)[nH]c2cn(C)nc12)c1ncccn1` (single isomer, unassigned) [Compound 20, (R*)-7-((2-methoxy-1-(pyrimidin-2-yl)ethyl)amino)-6-(6-methoxy-1H-imidazo[4,5-c]-pyridin-2-yl)-2-methyl-2H-pyrazolo[4,3-b]pyridin-5 (4H)-one], the values for the IC50 in assay [1] and in assay [2] were 4.67 nM and 22.4 nM, respectively.

As for `CCC(Nc1c(-c2nc3ccc(OCCOC)cc3[nH]2)c(=O)[nH]c2cn(C)nc12)c1ncccn1` (single isomer, unassigned) [Compound 49, (R*)-6-(6-(2-methoxyethoxy)-1H-benzo[d]imidazol-2-yl)-2-methyl-7-((1-(pyrimidin-2-yl)propyl)amino)-2H-pyrazolo[4,3-b]pyridin-5 (4H)-one], the IC50 in assay [1] stood at 59.5 nM; in assay [2], 150 nM.

With `COc1cnc2nc(-c3c(NC(c4ncccn4)C(C)C)c4nn(C)cc4[nH]c3=O)[nH]c2c1` (single isomer, unassigned) [Compound 39, (R*)-6-(6-methoxy-1H-imidazo[4,5-b]pyridin-2-yl)-2-methyl-7-((2-methyl-1-(pyrimidin-2-yl)propyl)amino)-2,4-dihydro-5H-pyrazolo[4,3-b]pyridin-5-one], the figures for the IC50 in assay [1] and in assay [2] were 48.6 nM and 263 nM, respectively.

Take `COCC(Nc1c(-c2nc3cnc(OC)cc3[nH]2)c(=O)[nH]c2cn(C)nc12)c1ncccn1` (single isomer, unassigned) [Compound 19, (S*)-7-((2-methoxy-1-(pyrimidin-2-yl)ethyl)amino)-6-(6-methoxy-1H-imidazo[4,5-c]-pyridin-2-yl)-2-methyl-2H-pyrazolo[4,3-b]pyridin-5 (4H)-one]: the IC50 in assay [1] amounted to 243 nM; in assay [2], 1240 nM.

On to `CCn1cc2[nH]c(=O)c(-c3nc4cc(OC)c(OC)cc4[nH]3)c(N[C@@H](C)c3ncccn3)c2n1` [Compound 37, (S)-6-(5,6-dimethoxy-1H-benzo[d]imidazol-2-yl)-2-ethyl-7-((1-(pyrimidin-2-yl)ethyl)-amino)-2H-pyrazolo[4,3-b]pyridin-5 (4H)-one], for which the IC50 was 0.673 nM in assay [1] and 1.83 nM in assay [2].

Consider `CCC(Nc1c(-c2nc3cnc(N(C)C)cc3[nH]2)c(=O)[nH]c2cn(C)nc12)c1ncccn1` (single isomer, unassigned) [Compound 14, (S*)-6-(6-(dimethylamino)-1H-imidazo[4,5-c]pyridin-2-yl)-2-methyl-7-((1-(pyrimidin-2-yl)propyl)amino)-2H-pyrazolo[4,3-b]pyridin-5 (4H)-one], for which the figures for the IC50 in assay [1] and in assay [2] were 11.8 nM and 71.9 nM, respectively.

In the case of `COCC(Nc1c(-c2nc3cc(OC)c(OC)cc3[nH]2)c(=O)[nH]c2cn(C)nc12)c1ncccn1` (single isomer, unassigned) [Compound 26, (R*)-6-(5,6-dimethoxy-1H-benzo[d]imidazol-2-yl)-7-((2-methoxy-1-(pyrimidin-2-yl)-ethyl)amino)-2-methyl-2H-pyrazolo[4,3-b]pyridin-5 (4H)-one], the IC50 was found to be 218 nM in assay [1] and 790 nM in assay [2].

Regarding `CCC(Nc1c(-c2nc3cc(OC)c(OC)cc3[nH]2)c(=O)[nH]c2cn(C)nc12)c1ncccn1` (single isomer, unassigned) [Compound 43, (R*)-6-(5,6-dimethoxy-1H-benzo[d]imidazol-2-yl)-2-methyl-7-((1-(pyrimidin-2-yl)-propyl)amino)-2H-pyrazolo[4,3-b]pyridin-5 (4H)-one], the 50% inhibitory concentration (IC50) is 43.2 nM in assay [1] and 138 nM in assay [2].
